Measured values reported in patent publication US20190060298A1, “NEW DRUG FOR THE TREATMENT AND/OR PREVENTION OF DEPRESSIVE DISORDERS” (SORBONNE UNIVERSITE, priority 2013, published 2019).
Entries after “also recorded” stand apart in the source; their conditions may differ.

Experiments:
Nrf2 [1] = assay: Nrf2 translocation in hippocampal HT22 cells; format: cell-based; conditions: 30 min, quercetin 10 μM; for nuclear Nrf2 translocation: BDNF 100 ng/ml, 7,8-DHF 10 μM
Procedure: (§1) Hippocampi were homogenized in ice-cold buffer A (10 mM Hepes, 150 mM NaCl, 1 mM EDTA, protease inhibitor cocktail [5 μl/ml] and phosphatase inhibitor cocktail [10 μl/ml]) and Nonidet P-40 (0.5%) was then added. After 10 min on ice, homogenates were centrifuged (1,200×g, 10 min, 4° C.). Supernatants were saved as the cytoplasmic fraction. Pellets were washed in ice-cold buffer A and sedimented by centrifugation at 1,200×g for 10 min at 4° C. Nuclear yield and integrity were checked by Giemsa staining and microscopy. Nuclei were resuspended in ice-cold buffer B (20 mM Hepes, 420 mM NaCl, 1.2 mM MgCl2, 0.2 mM EDTA, 25% glycerol, 0.5 mM DTT, protease inhibitor cocktail [5 μl/ml] and phosphatase inhibitor cocktail [10 μl/ml]). Samples were sonicated (15 s, 4° C.) and vortexed every 5 min for 20 min. The cytoplasmic and nuclear fractions were centrifuged at 20,000×g, for 30 min at 4° C. Supernatants were rapidly frozen in liquid nitrogen and stored at −80° C. A similar protocol was used for cell nuclear and cytosolic extracts.
40 μg of nuclear or cytosolic protein (or 20 μg for cell experiments) was resolved by SDS-polyacrylamide gel electrophoresis in a 12% polyacrylamide gel. The bands were transferred to nitrocellulose or PVDF membranes (Invitrogen, France) for immunoblotting according to standard procedures. We used the following antibody dilutions: 1:250 for rabbit polyclonal antibodies against Nrf2 (Santa Cruz Biotechnology, France), 1:500 for rabbit polyclonal antibodies against Keap1 (Santa Cruz Biotechnology) and 1:5000 for rabbit polyclonal antibodies against aconitase 2 (Gene Tex, France). A dilution of 1:10,000 was used for the fluorescent IRDye® 800CW secondary antibody (ScienceTec, Paris, France). Membranes were also probed with a mouse monoclonal antibody against GAPDH or a mouse monoclonal antibody against beta-actin (dilutions of 1:10,000 and 1:1,000, respectively, Sigma-Aldrich, France) and with the IRDye® 680CW secondary antibody from ScienceTec (1:10,000), to correct for protein loading. Images were acquired with the Odyssey® infrared imaging system (LI-COR Biosciences). Protein bands were quantified with Odyssey® software (version 3.0, LI-COR Biosciences). For SOD1, Prx2 and PrxSO2/SO3 analysis, we used the following antibody dilutions: 1:1000 for rabbit polyclonal antibodies against SOD (Euromedex), 1:2000 for rabbit polyclonal antibodies against PeroxiredoxinSO2/SO3 (Abcam), 1:1000 for rabbit polyclonal antibodies against Peroxiredoxin2 (Abcam). Horseradish peroxidase-conjugated secondary antibodies were used and membranes were developed with the ECL Plus detection reagent (Pierce, Rockford, Ill.). Images were acquired with a digital camera-based imaging system (ChemiDoc, Biorad) and analyzed with Quantity One software (Bio-Rad). […]

[2] = system: patients suffering of bipolar depression; conditions: cited from earlier work
Nrf2 [3] = assay: Superfusion of the hippocampus, Nrf2 levels; design: species or system Sprague-Dawley rats; conditions: 7,8-DHF 10 μM, 1 h; for cytosolic Nrf2 concentration: perfused hippocampi
Procedure: as §1
40 μg of nuclear or cytosolic protein (or 20 μg for cell experiments) was resolved by SDS-polyacrylamide gel electrophoresis in a 12% polyacrylamide gel. The bands were transferred to nitrocellulose or PVDF membranes (Invitrogen, France) for immunoblotting according to standard procedures. We used the following antibody dilutions: 1:250 for rabbit polyclonal antibodies against Nrf2 (Santa Cruz Biotechnology, France), 1:500 for rabbit polyclonal antibodies against Keap1 (Santa Cruz Biotechnology) and 1:5000 for rabbit polyclonal antibodies against aconitase 2 (Gene Tex, France). A dilution of 1:10,000 was used for the fluorescent IRDye® 800CW secondary antibody (ScienceTec, Paris, France). […] Protein bands were quantified with Odyssey® software (version 3.0, LI-COR Biosciences). […] Images were acquired with a digital camera-based imaging system (ChemiDoc, Biorad) and analyzed with Quantity One software (Bio-Rad). […]

[4] = intracerebroventricular administration; cited from earlier work
Keap1 [5] = assay: Superfusion of the hippocampus, Keap1 levels; design: species or system Sprague-Dawley rats; conditions: perfused hippocampi of DF and control rats; 7,8-DHF 10 μM, 1 h
Procedure: as §1, with “A similar protocol was used for cell nuclear and cytosolic extracts.” left out
(§2) 40 μg of nuclear or cytosolic protein (or 20 μg for cell experiments) was resolved by SDS-polyacrylamide gel electrophoresis in a 12% polyacrylamide gel. […] Protein bands were quantified with Odyssey® software (version 3.0, LI-COR Biosciences). […] Images were acquired with a digital camera-based imaging system (ChemiDoc, Biorad) and analyzed with Quantity One software (Bio-Rad). […]

Keap1 [6] = assay: Keap1 levels in hippocampal HT22 cells; format: cell-based; conditions: 30 min, BDNF 100 ng/ml or 7,8-DHF 10 μM
Procedure: as §1, with “A similar protocol was used for cell nuclear and cytosolic extracts.” left out
as §2

O=c1c(O)c(-c2ccc(O)c(O)c2)oc2cc(O)cc(O)c12 [quercetin]
nuclear Nrf2 translocation (Nrf2 [1]): induces a translocation of Nrf2 to the nucleus | Nrf2 cytosolic fraction (Nrf2 [1]): decreased

CC(=O)N[C@@H](CS)C(=O)O [N-acetylcysteine (NAC), N-acetylcysteine]
depression scores [2]: induced a robust decrement in depression scores

O=c1cc(-c2ccccc2)oc2c(O)c(O)ccc12 [7,8-DHF, 7,8-dihydroxyflavone]
nuclear Nrf2 translocation (Nrf2 [3]; perfused hippocampi of defeated (DF, D5) and control rats): induced a marked translocation of Nrf2 to the nuclear compartment; also recorded: induced Nrf2 translocation to the nucleus to the same level in defeated and control animals | cytosolic Nrf2 concentration (Nrf2 [3]; DF animals (D5)): induced a decrease in cytosolic Nrf2 concentration; also recorded: decrease in cytosolic Nrf2 levels | cytosolic Nrf2 concentration (Nrf2 [3]; control (C) animals): tendency for this concentration to decrease | neuroanatomical alterations (hippocampal CA3 dendritic retraction, increase of amygdala dendritic length) [4]: can prevent neuroanatomical alterations | occurrence of depressive profile [4]: prevent | nuclear Nrf2 translocation (Nrf2 [1]): induced a marked increase; also recorded: produced similar effects on Nrf2 | Keap1 concentration (Keap1 [5]): no change in Keap1 concentration | Keap1 levels (Keap1 [6]): not affected

B1: BDNF: brain derived neurotrophic factor, added to HT22 cell medium at 100 ng/ml (protein, UniProt P23560 19-247, looked up)
Neurotrophic factor BDNF …: APMKEANIRGQGGLAYPGVRTHGTLESVNGPKAGSRGLTSLADTFEHVIEELLDEDQKVRPNEENNKDADLYTSRVMLSSQVPLEPPLLFLLEEYKNYLDAANMSMRVRRHSDPARRGELSVCDSISEWVTAADKKTAVDMSGGTVTVLEKVPVSKGQLKQYFYETKCNPMGYTKEGCRGIDKRHWNSQCRTTQSYVRALTMDSKKRIGWRFIRIDTSCVCTLTIKRGR
nuclear Nrf2 translocation (Nrf2 [1]): induced a marked increase; also recorded: produced similar effects on Nrf2 | Keap1 levels (Keap1 [6]): not affected
